The source made the active and inactive calls. The rule behind the calls is not given here.
How the values were obtained:
[1] = (§1) Cytotoxicity against human MCF7 ER positive, PR positive/negative,HER2 negative cells assessed as cell growth inhibition after 24 hrs by MTT assay; assay type: functional, cell-based; conditions: MCF7, 24 h
[2] = test system: MCF7; assay: as §1; assay type: functional, cell-based
[3] = Cytotoxicity against human HepG2 cells assessed as cell growth inhibition after 24 hrs by MTT assay; assay type: functional, cell-based; conditions: HepG2, 24 h
[4] = Cytotoxicity against human HaCaT cells assessed as cell growth inhibition after 24 hrs by MTT assay; assay type: toxicity, cell-based
[5] = species on record: Bos taurus; assay: Binding affinity to calf thymus DNA assessed as decrease in […] at 50 uM measured at 260 nm by UV-Vis spectrophotometric analysis
[6] = species on record: Bos taurus; assay: Binding affinity to calf thymus DNA assessed as DNA positive band formation at 1:1 compound to DNA ratio by circular dichroism method
[7] = test system: MCF7; assay: Antiproliferative activity against human MCF7 cells assessed as reduction in colony formation at 8 to 16 nM after 21 days by crystal violet staining based clonogenic assay; assay type: functional, cell-based
[8] = species on record: Bos taurus; assay: Inhibition of DAPI binding to calf thymus DNA at 10 to 50 uM measured at 460 nm by fluorescence spectroscopic method
[9] = test system: MCF7; assay: Binding affinity to DNA in human MCF7 cells assessed as formation of DNA double strand breaks after 24 hrs by neutral comet assay; assay type: cell-based
[10] = test system: MCF7; assay: Binding affinity to DNA in human MCF7 cells assessed as formation of DNA double strand breaks after 24 hrs by alkaline comet assay; assay type: cell-based
[11] = test system: MCF7; assay: Binding affinity to DNA in human MCF7 cells assessed as formation of nuclear DNA double strand breaks at 12 nM after 24 hrs by DAPI-staining based fluorescence microscopic analysis; assay type: cell-based
[12] = test system: MCF7; assay: Induction of DNA double strand breaks in human MCF7 cells assessed as increase in H2AX to gamma-H2AX ratio at near IC50 after 24 hrs by Western blot analysis relative to control; assay type: cell-based
[13] = test system: MCF7; assay: Induction of DNA double strand breaks in human MCF7 cells assessed as H2AX phosphorylation at near IC50 after 24 hrs by Western blot analysis; assay type: cell-based
[14] = test system: MCF7; assay: Induction of DNA double strand breaks in human MCF7 cells assessed as gamma-H2AX foci at near IC50 after 24 hrs by DAPI staining based immunofluorescence assay; assay type: cell-based
[15] = test system: MCF7; assay: Induction of DNA double strand breaks in human MCF7 cells assessed as increase in apoptotic nuclei after 24 hrs by TUNEL assay; assay type: cell-based
[16] = test system: MCF7; assay: Induction of apoptosis in human MCF7 cells at IC50 after 24 hrs by Annexin V/7AAD-dual staining based fluorescent microscopic analysis; assay type: functional
[17] = test system: MCF7; assay: Induction of apoptosis in human MCF7 cells assessed as early apoptotic cells at 8 nM after 24 hrs by Annexin V-FITC/propidium iodide-dual staining based FACS analysis (reference value: 2.3%); assay type: functional
[18] = test system: MCF7; assay: Induction of apoptosis in human MCF7 cells assessed as late apoptotic cells at 8 nM after 24 hrs by Annexin V-FITC/propidium iodide-dual staining based FACS analysis (reference value: 0.1%); assay type: functional
[19] = test system: MCF7; assay: Induction of apoptosis in human MCF7 cells assessed as early apoptotic cells at 16 nM after 24 hrs by Annexin V-FITC/propidium iodide-dual staining based FACS analysis (reference value: 2.3%); assay type: functional
[20] = test system: MCF7; assay: Induction of DNA double strand breaks in human MCF7 cells assessed as activation of phosphorylated p53 at ser15 residue after 24 hrs immunoblot analysis; assay type: cell-based
[21] = test system: MCF7; assay: Induction of DNA double strand breaks in human MCF7 cells assessed as activation of phosphorylated ATM at ser1981 residue after 24 hrs immunoblot analysis; assay type: cell-based
[22] = Induction of DNA damage-mediated apoptosis in human MCF7 cells assessed as upregulation of cytochrome c after 24 hrs by immunoblot analysis; assay type: cell-based
[23] = test system: MCF7; assay: Induction of DNA damage-mediated apoptosis in human MCF7 cells assessed as increase in Bax/Bcl2 ratio after 24 hrs by immunoblot analysis; assay type: cell-based
[24] = test system: MCF7; assay: Induction of DNA damage-mediated apoptosis in human MCF7 cells assessed as cleavage of caspase-3 after 24 hrs by immunoblot analysis; assay type: cell-based
[25] = test system: MCF7; assay: Induction of DNA damage-mediated apoptosis in human MCF7 cells assessed as activation of ERK1/2 at 12 nM up to 6 hrs by immunoblot analysis; assay type: cell-based
[26] = test system: MCF7; assay: Induction of DNA damage-mediated apoptosis in human MCF7 cells assessed as activation of p38 at 12 nM up to 4 hrs by immunoblot analysis; assay type: cell-based
[27] = test system: MCF7; assay: Induction of DNA damage-mediated apoptosis in human MCF7 cells assessed as deactivation of Akt at 12 nM after 2 hrs by immunoblot analysis; assay type: cell-based
[28] = test system: MCF7; assay: Induction of DNA damage-mediated apoptosis in human MCF7 cells assessed as increase in E2F1 expression in nuclear fraction after 24 hrs by immunoblot analysis; assay type: cell-based
[29] = test system: MCF7; assay: Induction of DNA damage-mediated apoptosis in human MCF7 cells assessed as increase in Rb-E2F1 interaction at 8 to 16 nM after 24 hrs by co-immunoprecipitation analysis; assay type: cell-based
[30] = test system: MCF7; assay: Induction of DNA damage-mediated apoptosis in human MCF7 cells assessed as Rb hypo-phosphorylation after 24 hrs by immunoblot analysis; assay type: cell-based
[31] = test system: MCF7; assay: Induction of DNA damage-mediated apoptosis in human MCF7 cells assessed as delocalization of HDAC3 from nuclear to cytoplasm at 8 to 16 nM after 24 hrs by DAPI staining based immunocytochemistry analysis; assay type: cell-based
[32] = test system: MCF7; assay: Induction of DNA damage-mediated apoptosis in human MCF7 cells assessed as decrease in HDAC1 levels in nuclear fraction at 8 to 16 nM after 24 hrs by immunoblot analysis; assay type: cell-based
[33] = test system: MCF7; assay: Induction of DNA damage-mediated apoptosis in human MCF7 cells assessed as decrease in HDAC2 levels in nuclear fraction at 8 to 16 nM after 24 hrs by immunoblot analysis; assay type: cell-based
[34] = test system: MCF7; assay: Induction of DNA damage-mediated apoptosis in human MCF7 cells assessed as decrease in HDAC1 expression in cytoplasmic fraction at 8 to 16 nM after 24 hrs by immunoblot analysis; assay type: cell-based
[35] = test system: MCF7; assay: Induction of DNA damage-mediated apoptosis in human MCF7 cells assessed as increase in HDAC3 expression in cytoplasmic fraction at 8 to 16 nM after 24 hrs by immunoblot analysis; assay type: cell-based
[36] = test system: MCF7; assay: Induction of DNA damage-mediated apoptosis in human MCF7 cells assessed as phosphorylation of p53 at Ser-15 residue after 24 hrs by DAPI staining based immunocytochemistry analysis; assay type: cell-based
[37] = test system: MCF7; assay: Induction of DNA damage-mediated apoptosis in human MCF7 cells assessed as increase in cleaved caspase-3 level at 8 to 16 nM after 24 hrs by DAPI staining based immunocytochemistry analysis; assay type: cell-based
[38] = Cell cycle arrest in human MCF7 cells assessed as G2/M phase at 8 nM after 24 hrs by propidium iodide staining based FACS analysis (reference value: 28.3%); assay type: functional
[39] = Cell cycle arrest in human MCF7 cells assessed as G2/M phase at 12 nM after 24 hrs by propidium iodide staining based FACS analysis (reference value: 28.3%); assay type: functional

With `O=c1cc(OCc2ccccc2)c2ccc3ccccc3c2[nH]1` the IC50 [1] was 0.012 µM, the “growth inhibition (GI)” value [2] was “Dose-dependent effect” and the IC50 [3] was 37 µM. For the same compound, the IC50 at 24 h [4] was greater than 100 µM, the Activity [5] was “Active” and the Activity [6] was “Active”. For the same compound, the Activity [7] was “Active”, the inhibition [8] was “Active” and the Activity [9] was “Dose-dependent effect”. The Activity [10] was “Dose-dependent effect”, the Activity [11] was “Active” and the fold change (FC) [12] was 6.3. For the same compound, the Activity [13] was “Active”, the Activity [14] was 29.9% and the Activity [15] was “Dose-dependent effect”. For the same compound, the Activity [16] was 44.78%, the Activity [17] was 10.9% and the Activity [18] was 7.2%. The Activity [19] was 43.5%, the Activity [20] was “Dose-dependent effect” and the Activity [21] was “Dose-dependent effect”. The Activity [22] was “Dose-dependent effect”, the Activity [23] was “Dose-dependent effect” and the Activity [24] was “Dose-dependent effect”. The Activity [25] was “Active”, the Activity [26] was “Active” and the Activity [27] was “Active”. The Activity [28] was “Active”, the Activity [29] was “Active” and the Activity [30] was “Dose-dependent effect”. For the same compound, the Activity [31] was “Active”, the Activity [32] was “Active” and the Activity [33] was “Active”. For the same compound, the Activity [34] was “Active”, the Activity [35] was “Active” and the Activity [36] was “Dose-dependent effect”. The Activity [37] was “Active”, the Activity [38] was 19% and the Activity [39] was 16.2%.
